Source: ChEMBL document CHEMBL1201862, “PubChem BioAssay data set” (2004)
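Growth conditions: 96-well plates. Treatment: test compound, 48 hours, 5 concentrations. Analysis: linear interpolation between bracketing concentrations; unreached endpoints set to highest concentration. Here, GI50 denotes the concentration required for 50% inhibition of growth.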 The source made the active and inactive calls. Rule as the data show it: active = GI50 up to about 1.1 µM and inactive = higher.

Experiments:
Assay in all cases: NCI-60 cell line screen, 48 h
SF-295 = system: SF-295
UO-31 = system: UO-31
MDA-MB-435 = system: MDA-MB-435
SW-620 = system: SW-620
A549 = system: A549
IGROV-1 = system: IGROV-1
SK-MEL-28 = system: SK-MEL-28
M14 = system: M14
SK-MEL-5 = system: SK-MEL-5
KM12 = system: KM12
Hs-578T = system: Hs-578T
Malme-3M = system: Malme-3M
NCI-H226 = system: NCI-H226
UACC-257 = system: UACC-257
ACHN = system: ACHN
T47D = system: T47D
SR = system: SR
OVCAR-4 = system: OVCAR-4
SNB-19 = system: SNB-19
HCC 2998 = system: HCC 2998

Measured: GI50

Cc1ccc2c(/C=C/c3ccc(N(C)C)cc3)ccc(C(C)C)cc1-2
inactive: SF-295 > 100 µM | UO-31 > 100 µM | MDA-MB-435 > 100 µM | SW-620 > 100 µM | A549 > 100 µM | IGROV-1 > 100 µM | SK-MEL-28 > 100 µM | M14 > 100 µM | SK-MEL-5 22 µM | KM12 > 100 µM | Hs-578T > 100 µM | Malme-3M > 100 µM | NCI-H226 > 100 µM | UACC-257 48.9 µM | ACHN > 100 µM | T47D 36.9 µM | SR 27.9 µM

COC(=O)c1ccccc1CC1Cc2c(C)ccc(C)c2C1=O (stereo unspecified)
inactive: SF-295 28.7 µM | UO-31 25.8 µM | MDA-MB-435 23.1 µM | OVCAR-4 25.9 µM | SW-620 35.6 µM | A549 40.2 µM | IGROV-1 32 µM | SK-MEL-28 48 µM | M14 34.8 µM | SNB-19 37.9 µM | SK-MEL-5 17.8 µM | KM12 23.6 µM | Hs-578T 33.3 µM | Malme-3M 22.4 µM | NCI-H226 38.9 µM | UACC-257 16.2 µM | ACHN 33.8 µM | T47D 21.4 µM | HCC 2998 36.9 µM

Cc1cn(C2CCN(CC3COC(C)(C)O3)O2)c(=O)[nH]c1=O (stereo unspecified)
inactive: SF-295 > 100 µM | UO-31 > 100 µM | MDA-MB-435 > 100 µM | OVCAR-4 > 100 µM | SW-620 > 100 µM | A549 > 100 µM | IGROV-1 > 100 µM | SK-MEL-28 > 100 µM | M14 > 100 µM | SK-MEL-5 > 100 µM | KM12 > 100 µM | Hs-578T > 100 µM | Malme-3M > 100 µM | NCI-H226 > 100 µM | UACC-257 > 100 µM | ACHN > 100 µM | T47D > 100 µM | SR > 100 µM

C=CC1OC(CCCOC(=O)C(C)(C)C)O[C@@H]1CC (stereo partly specified)
inactive: SF-295 > 100 µM | UO-31 > 100 µM | MDA-MB-435 > 100 µM | OVCAR-4 > 100 µM | SW-620 > 100 µM | A549 > 100 µM | IGROV-1 > 100 µM | SK-MEL-28 > 100 µM | M14 > 100 µM | SNB-19 > 100 µM | SK-MEL-5 > 100 µM | KM12 > 100 µM | Hs-578T > 100 µM | NCI-H226 > 100 µM | UACC-257 > 100 µM | ACHN > 100 µM | T47D > 100 µM | SR > 100 µM

O=C(c1ccccc1)C(C(=O)c1ccccc1)c1nc2ccccc2sc1=O
inactive: SF-295 10.1 µM | UO-31 10.4 µM | MDA-MB-435 10.4 µM | OVCAR-4 9.71 µM | SW-620 15.9 µM | A549 8.91 µM | IGROV-1 8.11 µM | SK-MEL-28 > 25 µM | M14 15.8 µM | SNB-19 18.5 µM | SK-MEL-5 15.6 µM | KM12 12.6 µM | Hs-578T 24.5 µM | Malme-3M 9.53 µM | NCI-H226 7.08 µM | UACC-257 > 25 µM | ACHN 9.84 µM | T47D > 25 µM | HCC 2998 23.7 µM

CN1C2=Nc3n(C)c4ccccc4[n+]3CN2c2ccccc21
inactive: SF-295 95.7 µM | UO-31 > 100 µM | MDA-MB-435 26.5 µM | SW-620 24.3 µM | A549 37.6 µM | IGROV-1 29.9 µM | M14 43.7 µM | SNB-19 35.3 µM | SK-MEL-5 12.6 µM | KM12 8.73 µM | Hs-578T 27.5 µM | Malme-3M 4.21 µM | UACC-257 32.1 µM | ACHN > 100 µM | T47D 16.3 µM | SR 28.3 µM

CC1=NN(c2ccccc2Cl)C2(C1)SCC(=O)N2c1nc2ccccc2s1 (stereo unspecified)
inactive: SF-295 > 100 µM | UO-31 > 100 µM | MDA-MB-435 > 100 µM | OVCAR-4 > 100 µM | SW-620 > 100 µM | A549 > 100 µM | IGROV-1 > 100 µM | SK-MEL-28 > 100 µM | M14 > 100 µM | SNB-19 > 100 µM | SK-MEL-5 > 100 µM | KM12 > 100 µM | Hs-578T > 100 µM | Malme-3M > 100 µM | NCI-H226 > 100 µM | UACC-257 > 100 µM | ACHN > 100 µM | T47D > 100 µM | HCC 2998 > 100 µM
